Columns and labels:
[1] = tested on: alveolar cells; experiment: Alveolar (inflammatory) cells in bronchoalveolar lavage fluid of infected mice; assay type: in vivo
Protocol: Mouse Lung Infection. Mice were anaesthetized with a combination of ketamine (7.5 mg/mL) and xylazine (0.5 mg/mL) administered intraperitoneally at a dose of 20 mL/kg of body weight. Once the mouse was successfully anaesthetized, the animal was installed under binoculars (Microscope M650, Wild Leitz, Willowdale, ON) in the vertical position and held on a restraining board by holding the animal by its upper incisor teeth (Guilbault, et al. (2005) supra). The tongue was then gently pulled to the side of the mouth and a 26-G gavage needle was inserted into the mouth and guided through the pharynx gently touching the vocal cords to see the lumen of the trachea; the needle was then introduced into the trachea to reach the lung for the bilateral injection of the 50 microliter inoculum. After inoculation, the animal regained righting reflex within an hour. A final dose of 1×10^6 P. aeruginosa was used for infection using wild-type and Cftr-KO mice. Mice were monitored 3 times daily; the maximum weight loss allowed was 15%. Mice were sacrificed by CO2 overdose.
Bronchoalveolar Lavage. Circulation was flushed by slow intracardiac infusion of divalent cation-free Hank's balanced salt solution (HBSS; INVITROGEN™, Mississauga, ON). The trachea was cannulated with a 22-gauge intravenous catheter placement unit (CRITIKON®, GE Medical Systems, Tampa, Fla.) connected to two 5 mL syringes via a 3-way stopcock with a rotating collar (Namic U.S.A., Glens Falls, N.Y.). The alveoli of infected mice were washed 3 times with 1.4 mL of divalent cation-free HBSS. The volume of bronchoalveolar lavage fluid recovered was approximately 1.2 mL. […] Cells were resuspended in 0.5 mL of Dulbecco's Modified Eagle Medium (DMEM; INVITROGEN™) supplemented with 10% fetal bovine serum (FBS; Hyclone, Logan, Utah), diluted in Turk's solution and counted using a hematocytometer. The proportions of macrophages, lymphocytes and PMN were calculated after counting approximately 300 alveolar cells on cytospin preparations stained with DIFF-QUICK® stain (American Scientific Products, McGaw Park, Ill.).

[2] = tested on: ceramide levels; experiment: Ceramide levels by ELISA in lung and plasma of P. aeruginosa-infected mice; assay type: in vivo
Protocol: Fenretinide Diet Supplementation. Examples 2 to 6: fenretinide (Sigma-Aldrich, Oakville, ON) powder was resuspended in 95% ethanol and subsequently incorporated in the Peptamen liquid diet. It was protected from light and kept at 4° C. before being given to the mice (5 mg/kg per day per mouse). Mock-treated diets were prepared similarly by adding ethanol to the Peptamen diet but omitting the fenretinide supplementation. The diet was given every morning for 28 consecutive days with specific monitoring of the quantity consumed by the mice in each cage. Examples 7 to 12: fenretinide powder was kindly provided by Dr. Robert Smith (NIH; Bethesda, Md., USA). Fenretinide was resuspended in 95% ethanol to make a 2 μg/μL concentration. Approximately 40 μL of this preparation was incorporated into the Peptamen liquid diet (5 mg/kg per day per mouse). The prepared food containing fenretinide was then stored in the dark at 4° C. for no more than 3 hours prior to being administered to the mice. To ensure that the entire drug dose was consumed, the mice were given 10 mL of fenretinide-treated Peptamen, which represents ⅔ of the daily mouse food consumption, in the late afternoon. […] During the treatment period each mouse was kept in a separate cage (including WT mice) and was monitored to ensure that the entire amount of Peptamen containing the fenretinide or with out was consumed. […]

CC1=C(/C=C/C(C)=C/C=C/C(C)=C/C(=O)Nc2ccc(O)cc2)C(C)(C)CCC1 [fenretinide, all-trans-N-(4-hydroxyphenyl) retinamide]
Mean total number of alveolar cells in the lungs ([1]; Cftr-KO mice, day 3 post-infection (p=0.530 vs mock-treated)): 1.1×10^6±1.3×10^6
Effect on cells recruited into the lungs of infected mice vs mock-treated ([1]; day 3 post-infection, wild-type and Cftr-KO, neutrophils, monocytes, lymphocytes): no effect
Mean total number of alveolar cells in the lungs ([1]; wild-type mice, day 3 post-infection (p=0.280 vs mock-treated)): 1.2×10^6±1.0×10^6
Increase in ceramide levels vs mock-treated controls ([2]; P. aeruginosa-infected Cftr-KO mice): approximately 7 fold
Increase in ceramide levels vs untreated counterparts ([2]; P. aeruginosa-infected WT mice): approx. 2 fold

— patent publication US8680153B2, “Method for correcting a lipid imbalance in a subject” (The Royal Institution for the Advancement of …, priority 2005, dated 2014)
